{
  "source": "patent US12465571B2",
  "about": "“Solid dosage form” (University of Lancashire, priority 2016, dated 2025)",
  "origin": "cited, not measured here",
  "conditions": "high solubility and high permeability",
  "data": [
    {"compound": "Cn1c(=O)c2[nH]cnc2n(C)c1=O", "note": "[theophylline, Theophylline]", "values": [
      {"measurement": "Biopharmaceutical Classification System class", "value": "class I"}
    ]}
  ]
}
